Experimental findings from PubChem BioAssay AID1645864 (Buhrlage Lab, Dana-Farber Cancer Institute and Novartis …, 2021) are described below.

Each structure is given as a SMILES string. The source made the active and inactive calls.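 The calls were made as follows: active = maximal inhibition of USP17 at or above 30% in the confirmation dose-response, a value not among the printed readouts; inactive = the rest.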 Some results are limits rather than exact numbers.

Ubiquitin carboxyl-terminal hydrolase 17-like protein 5 (Homo sapiens), sequence (A8MUK1 whole entry, looked up): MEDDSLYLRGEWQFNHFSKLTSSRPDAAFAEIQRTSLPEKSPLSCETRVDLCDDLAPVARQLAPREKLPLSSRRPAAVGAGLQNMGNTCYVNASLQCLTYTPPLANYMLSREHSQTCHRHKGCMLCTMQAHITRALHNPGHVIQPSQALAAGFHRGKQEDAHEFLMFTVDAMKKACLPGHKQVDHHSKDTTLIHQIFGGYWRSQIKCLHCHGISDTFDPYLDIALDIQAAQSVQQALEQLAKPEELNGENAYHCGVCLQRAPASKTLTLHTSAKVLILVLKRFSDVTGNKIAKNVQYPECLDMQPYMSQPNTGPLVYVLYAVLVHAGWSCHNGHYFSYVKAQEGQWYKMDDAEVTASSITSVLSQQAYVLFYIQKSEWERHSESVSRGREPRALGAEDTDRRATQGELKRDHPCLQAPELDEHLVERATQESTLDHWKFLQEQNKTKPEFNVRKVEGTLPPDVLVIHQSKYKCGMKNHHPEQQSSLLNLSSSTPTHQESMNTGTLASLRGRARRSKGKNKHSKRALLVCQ

The assay has as its target Ubiquitin carboxyl-terminal hydrolase 17-like protein 5 (Homo sapiens) (UniProt A8MUK1). The experiment in a line: ubiquitin-specific protease 17 inhibitors, concentration series, biochemical, verification of primary actives (AID 1645864). As to conditions: purified USP17, ubiquitin-rhodamine cleavage fluorescence, 3 h.
As for `COc1ccc(NC(=O)c2ccc(-n3nnnc3SC)cc2)cc1Cl`, the IC50 is > 50 µM (inactive).

Consider `O=c1c2ccccc2oc2nc(-c3cccs3)n(-c3ccccc3)c(=O)c12`, for which the IC50 was 2.67 µM. In the case of `COc1cc(NC(=O)COC(=O)Cn2cnc3ccccc32)cc(OC)c1`, the IC50 was > 50 µM (inactive). In the case of `COc1ccc(C(C(=O)NC2CCCCC2)N(C(=O)CCCC(=O)Nc2ccccn2)c2ccccc2C)cc1` (stereo not drawn), the 50% inhibitory concentration (IC50) was 22.5 µM. Regarding `O=c1[nH]c2ccccc2cc1CN(Cc1ccco1)S(=O)(=O)c1ccc(F)cc1`, the IC50 was > 50 µM (inactive). Take `O=C(CN(Cc1ccc(Cl)cc1)S(=O)(=O)c1ccc(Cl)cc1)N1CCOCC1`: the IC50 was > 50 µM (inactive). On to `CCc1ccc2c(c1)[C@]1(C(=O)N2)[C@@H]2C(=O)N(c3ccc(Cl)cc3Cl)C(=O)[C@@H]2[C@@H]2CCCN21`, for which the IC50 was > 50 µM (inactive). On to `CN(C)C(=O)CSc1nnc(-c2cccc(Cl)c2)n1-c1ccc(Cl)c(C(F)(F)F)c1`, for which the IC50 was 2.81 µM. Then `CC(=O)N1CCCC(c2nc(C)cc(-c3cc(F)ccc3C(=O)O)n2)C1` (stereo not drawn), with > 50 µM (inactive); and `CSc1nc(Cc2ccc(Cl)cc2)nc2ccccc12`, with > 50 µM (inactive); and `COc1cccc(NC(=O)C2Cn3ccnc3C3(CCN(C(C)=O)CC3)O2)c1` (stereo not drawn), with > 50 µM (inactive). Then `Cc1c(-c2nc(-c3ccccc3Cl)no2)nnn1-c1cccc(F)c1`, with 6.66 µM; and `O=C(NCCc1ccco1)c1ccc(N2CCOc3ccccc32)s1`, with 15.4 µM.

For the compound `CC(=O)c1ccc(NC(=O)c2ccc(N3CCCCS3(=O)=O)cc2Cl)cc1`, the IC50 was 30.6 µM. In the case of `COc1ccc(C2CC(c3ccccc3)N(C(=O)C3CC3)c3ncnn32)cc1` (stereo not drawn), the IC50 is > 50 µM (inactive). As for `COc1cccc2cc(C(=O)Nc3ccc4c(c3)OCCO4)oc12`, the figure is > 50 µM (inactive).

As to `O=C(Nc1ccc(-c2cn3ccccc3n2)cc1)C1C=C2C=C(Br)C=CC2OC1=O` (stereo not drawn), the half-inhibitory concentration (IC50) was 0.577 µM. As to `O=C(CSc1nnc(CNC(=O)c2ccccc2F)o1)Nc1ccc(OC(F)(F)F)cc1`, the IC50 is 33 µM. `CN(C)CCc1cc2c(c3c1ccc1ccccc13)OCO2`: the IC50 is > 50 µM (inactive).

Consider `COc1ccc(OC)c(-c2c(C#N)c(C)nc3c2N2CCC3CC2)c1`, for which the IC50 is 6.92 µM. As for `CCS(=O)(=O)N1CCc2cc(C(=O)Nc3ccc4c(c3)OCCO4)ccc21`, the IC50 is > 50 µM (inactive). With `O=C(NCc1ccc2c(c1)OCO2)c1cc(-c2cc(Cl)ccc2O)n[nH]1`, the IC50 was 3.15 µM.

`Cc1[nH]nc(NC(=O)C2COc3ccccc3O2)c1-c1ccccc1` (stereo not drawn): the half-maximal inhibitory concentration (IC50) was 34.7 µM.

Turning to `COCC(=O)Nc1cc(F)c2nc(N3CCOCC3)ccc2c1`, the IC50 is 33.8 µM. For `COc1ccc(NC(=O)C2C3C=CC4(O3)C2C(=O)N(CCc2ccccc2)C4C(=O)NC2CCCCC2)cc1` (stereo not drawn), the IC50 is 26.2 µM.

Consider `COc1ccc(OC)c(-c2cn3ccn(-c4ccc5c(c4)CCC5)c(=O)c3n2)c1`, for which the IC50 is > 50 µM (inactive). Then `COc1cccc2c1NC(=O)C21CCN(C(=O)Nc2cccc3ccccc23)CC1`, with > 50 µM (inactive); and `Cc1ccc(S(=O)(=O)N(C)C)cc1NC(=O)Cc1ccc(Cl)c(Cl)c1`, with > 50 µM (inactive). Take `COc1cccc(NC(=O)C2CCC(CNS(=O)(=O)c3ccc4c(c3)C(C)(C)C(=O)N4C)CC2)c1` (stereo not drawn): the IC50 was > 50 µM (inactive). As for `c1ccc(-c2ccc(NCc3ccc4c(c3)OCO4)nn2)cc1`, the figure is 7.45 µM; as for `CN(C)c1ccc(C2CC(c3c(O)n(C)c(=O)[nH]c3=O)=Nc3ccccc3S2)cc1` (stereo not drawn), 2.37 µM; as for `COc1cccc(NC(=O)Nc2ccc3nc4n(c(=O)c3c2)CCCC4)c1`, 9.31 µM.

For the compound `CN(Cc1ccccc1)S(=O)(=O)c1ccc2[nH]cc(C(=O)NCc3cccs3)c(=O)c2c1`, the IC50 was 0.749 µM.

Regarding `O=C(c1cc2ccccc2o1)N1CC=C(c2ccccc2)CC1`, the IC50 was > 50 µM (inactive).

On to `O=C(Nc1ccc(F)cc1F)NC1CCN(c2ccccc2)C1=O` (stereo not drawn), for which the IC50 is 18.3 µM. In the case of `COc1ccccc1-c1nc2c3c(ncn2n1)Oc1c(c(C)nn1-c1ccccc1)C3c1cccnc1` (stereo not drawn), the IC50 was 5.68 µM. For `O=C(O)c1nccnc1C(=O)N1CCc2ccccc2C1`, the IC50 is > 50 µM (inactive). Regarding `O=C(Nc1nc2c(s1)COCC2)c1cc(-c2ccco2)[nH]n1`, the IC50 was > 50 µM (inactive). With `O=C(c1ccc2cc[nH]c2c1)N1CCC(Nc2cccnc2)C1` (stereo not drawn), the IC50 was > 50 µM (inactive). In the case of `O=C(CNC(=O)c1cccc(F)c1)Nc1nc2ccccc2[nH]1`, the IC50 was 19.2 µM. With `CCOc1ccc(N2C(=O)c3ccccc3C2C(=O)NCc2ccccc2OC)cc1` (stereo not drawn), the IC50 is 45.8 µM. Regarding `COC(=O)c1ccc(C(=O)Nc2cc3ccccc3cc2NC(=O)c2ccc(C(=O)OC)cc2)cc1`, the IC50 was 0.68 µM.

As for `CC(C)CC(=O)Nc1cc(F)c2nc(N3CCOCC3)ccc2c1`, the IC50 is 5.95 µM. `CCc1cc2cc3c(cc2nc1SCC(=O)Nc1cccc(C(C)=O)c1)OCO3`: the 50% inhibitory concentration (IC50) was 2.29 µM. Then `CCCOc1ccc(C(=O)Nc2ccc(S(=O)(=O)Nc3cc(C)nc(C)n3)cc2)cc1`, with > 50 µM (inactive); and `Cc1ccc2nc(CNC(=O)c3ccccc3-c3nc(-c4ccc(F)cc4)no3)[nH]c2c1`, with 27.2 µM; and `COc1cccc2c1NC(=O)C21CCN(C(=O)Nc2cccc(C)c2)CC1`, with 20.1 µM. Consider `O=c1c(S(=O)(=O)c2cc(F)cc(F)c2)c[nH]c2cc(Cl)ccc12`, for which the IC50 was 23.8 µM.

In the case of `CCOc1ccc2nc(NC(=O)C3CCN(S(=O)(=O)c4ccc5c(c4)CC(C)N5C(C)=O)CC3)sc2c1` (stereo not drawn), the IC50 was > 50 µM (inactive).

For `CCOc1ccccc1NC(=O)Cn1c(=O)n(CCCC(=O)NCc2ccc(C)cc2)c(=O)c2sccc21`, the IC50 was 2.71 µM. For `Oc1ccc(-c2nc3ccc(Cl)cn3c2NC2CCCCC2)cc1`, the IC50 was 15.2 µM. As for `c1ccc(-n2nnc(-c3noc(-c4ccccn4)n3)c2-c2ccncc2)cc1`, the figure is 46.6 µM. Take `COc1ccc(NC2c3ccccc3C(=O)N2c2ccccn2)cc1` (stereo not drawn): the IC50 was > 50 µM (inactive). For the compound `Cc1ccc(OCCn2c(=N)n(C(C)C)c3ccccc32)cc1`, the IC50 was > 50 µM (inactive). Consider `CC(=O)c1ccc(NC(=O)/C(=C/c2ccco2)n2nnnc2-c2ccccc2)cc1`, for which the IC50 is > 50 µM (inactive).

Take `Cc1nnc(C(=O)Nc2ccc(C(=O)NCc3ccccc3C)cc2)s1`: the IC50 is 27.2 µM.

For `COc1cccc(Cn2nc3n(CC(C)C)c(=O)c4ccc(C(=O)NCC(C)C)cc4n3c2=O)c1`, the IC50 is 6.84 µM. Consider `Cc1cccc(NC(=O)Nc2ccc(C)n(CC(=O)Nc3ccccc3)c2=O)c1`, for which the 50% inhibitory concentration (IC50) was 22.6 µM.

Turning to `COc1ccc(NC(=O)c2nnn(-c3cccc(C)c3)c2C)cc1`, the IC50 was > 50 µM (inactive).

As to `COc1cc2c(cc1OC)C(COc1ccccc1OC)N(C(=O)c1ccc3ccccc3c1)CC2` (stereo not drawn), the IC50 is > 5 µM (inactive). Turning to `O=C(NCc1ccccc1Cl)c1ccc2cn[nH]c2c1`, the IC50 is > 50 µM (inactive).

For `COc1ccccc1-c1nc2c3c(C)c(C)n(-c4ccc(Br)cn4)c3ncn2n1`, the half-inhibitory concentration (IC50) is 0.567 µM. `O=C(O)c1ccccc1C(=O)Nc1ccc(SC(C(=O)Nc2cccc(Cl)c2)c2ccccc2)cc1` (stereo not drawn): the IC50 is 23.4 µM. Turning to `CCOc1ccc(-n2c(C)cc(/C=C(\C#N)c3nc4ccccc4[nH]3)c2C)cc1`, the IC50 was > 50 µM (inactive). In the case of `O=C(COc1ccc(Cl)cc1)NCc1nnc(SCC(=O)NCc2ccc3c(c2)OCO3)o1`, the IC50 is 28.2 µM. Regarding `Cc1c(-c2nn3c(-c4ccco4)nnc3s2)cccc1[N+](=O)[O-]`, the IC50 was 3 µM. In the case of `O=C(CN1C(=O)c2ccccc2Sc2ccc(C(=O)N3CCCC3)cc21)Nc1ccccc1Cl`, the IC50 was 34.1 µM. As to `Nc1ccccc1SCc1noc(-c2cccs2)n1`, the IC50 was > 50 µM (inactive). In the case of `N#Cc1ccc(NC(=O)Nc2cccn(Cc3c(F)cccc3Cl)c2=O)cc1`, the IC50 was 3.86 µM.

On to `COc1ccc(-c2cc(-c3ccc(F)cc3)[nH]c(=O)c2C#N)cc1`, for which the IC50 is 30.3 µM. `CCOc1ccc(NC(=O)COc2cccc3c2CCN(CC)C3=O)cc1`: the IC50 was > 50 µM (inactive).

`O=C(Cn1c(=O)n(Cc2ccc(F)cc2)c(=O)c2sccc21)Nc1cccc(Cl)c1`: the IC50 is 7.77 µM. As to `O=C(CCCn1c(=O)[nH]c2cc(Cl)ccc2c1=O)N1CCc2ccccc2C1`, the IC50 was 21.5 µM.

With `O=S(=O)(c1cccc(F)c1)N1CCc2nc3ccccc3n2CC1`, the IC50 was 3.12 µM. Turning to `CC(=O)Nc1ccc(Cc2nc(-c3ccc4c(c3)nc(C)c(=O)n4C3CCCC3)no2)cc1`, the IC50 is > 50 µM (inactive).

Turning to `COc1cc(O)c2c(=O)c(-c3ccc(O)cc3)coc2c1`, the IC50 was 15.4 µM.

For the compound `CCOc1ccccc1C(=O)Nc1ccc2c(c1)Sc1ncccc1C(=O)N2C`, the IC50 is > 50 µM (inactive).

Take `COc1ccc(S(=O)(=O)N2CCN3Cc4ccccc4N(C)CC3C2)cc1` (stereo not drawn): the IC50 was > 50 µM (inactive).

For `COc1ccc(CCn2cnc3c([nH]c4ccccc43)c2=O)cc1`, the IC50 was 2.98 µM. Take `O=C(c1ccc(Cl)cc1)c1c[nH]cc1-c1c(F)cccc1Cl`: the IC50 is 36.3 µM. As for `O=C(NCc1cccnc1)c1cnn2c(C(F)(F)F)cc(-c3ccccc3)nc12`, the IC50 is > 50 µM (inactive).

Consider `Cn1nc(-c2nc(-c3ccccc3)no2)c2c1CCN(C(=O)C1CC1)C2`, for which the IC50 was > 50 µM (inactive). For the compound `O=C(COc1cccc2ccc(N3CCC(Cc4ccccc4)CC3)nc12)NCc1ccc(F)cc1`, the IC50 was 21.1 µM. Take `O=C(Cn1c(=O)n(Cc2ccc3c(c2)OCO3)c(=O)c2ncccc21)c1ccc(Cl)cc1`: the IC50 is 33 µM. Then `CSc1ncccc1C(=O)NC1(O)C(=O)c2ccccc2C1=O`, with 4.57 µM; and `O=C(CN1C(=O)NC2(CCCCC2)C1=O)Nc1ccc([N+](=O)[O-])cc1`, with 32.8 µM. `CC(C)Cc1nc2sc3c(NCCN4CCOCC4)ncnc3c2c2c1CCC2`: the IC50 is > 50 µM (inactive). As for `Cc1ccc2c(=O)c3c([nH]c2c1C)CCN(CC(=O)NCc1ccc2c(c1)OCO2)C3`, the concentration for half-maximal inhibition (IC50) was 32.8 µM.

Broadly, the IC50 is the concentration at which inhibition is half-maximal.
